Measurements: patent US20090074676A1, “Inhibition of p38 MAPK For Treatment Of Obesity” (SMITHKLINE BEECHAM CORPORATION, priority 2005, published 2009)
“Also recorded” adds a separate entry of the source.

What was measured:
3T3-L1 adipocytes = conditions: by reducing GLUT4 activity; cited from earlier work
DIO C57BL/6 mice = test: Experiment 3: four weeks treatment of male DIO C57BL/6 mice on high fat diet (body weight, body composition, glucose); format: in vivo; conditions: PO, BID, 4 weeks
Procedure: Methods: Male C57BL/6 mice, from Jackson Laboratories, group housed, 18-19 weeks old, on high fat diet (HFD, D12331 rodent diet, 58 kcal % from fat and sucrose. Research Diets, Inc., New Brunswick, N.J.) started at 4-5 weeks old. A parallel group of mice on normal diet (ND, Purina 5001) was served as diet control. During the last 4 weeks of diet period, mice on HFD were treated with vehicle (0.5% tragacanth in 0.03N HCl), Compound 2 administered at 3, 10, and 30 mg/kg, BID, PO (10 ml/kg). Mice on ND were treated with vehicle. Mouse number in each group was 8-10. Body weight (BW), body composition, fasting blood glucose, postprandial blood glucose and insulin were measured. […] Epididymal fat pad was collected to determine PPARγ and GLUT4 gene expression.

DIO AKR mice = test: Experiment 2: two week treatment of 24-25 weeks old male DIO AKR mice on high fat diet; format: in vivo; conditions: 10 & 30 mg/kg, PO, BID
Procedure: Compound 2 was administered for a two week treatment in 24-25 weeks old male DIO AKR mice (older). Methods: Male AKR mice, from Jackson Laboratories, group housed, 24-25 weeks old, on high fat diet (HFD, D12331 rodent diet, 58 kcal % from fat and sucrose. Research Diets, Inc., New Brunswick, N.J.) started at 4-5 weeks old. A parallel group of mice on normal diet (ND, Purina 5001) was served as diet control. During the last 2 weeks of diet period, mice on HFD were treated with vehicle (0.5% tragacanth in 0.03N HCl), Compound 2 administered at 10, and 30 mg/kg, BID, PO (10 ml/kg). Mice on ND were treated with vehicle. Mouse number in each group was 7-10. Body weight (BW), body composition, postprandial blood glucose, and fasting serum insulin were measured.

[1] = tested on: diet-induced obese (DIO) AKR mice; test: Experiment 1: four weeks treatment of 18-19 weeks old male DIO AKR mice on high fat diet (body weight, body composition, glucose, ITT); format: in vivo
Procedure: Compound 2 was administered for four weeks treatment in 18-19 weeks old male, diet-induced obese (DIO) AKR mice. Methods: Male AKR mice, from Jackson Laboratories, group housed, 18-19 weeks old, on high fat diet (HFD, D12331 rodent diet, 58 kcal % from fat and sucrose. Research Diets, Inc., New Brunswick, N.J.) started at 4-5 weeks old. A parallel group of mice on normal diet (ND, Purina 5001) was served as diet control. During the last 4 weeks of diet period, mice on HFD were treated with vehicle (0.5% tragacanth in 0.03N HCl), Compound 2 was administered at 3 mg/kg, and 10 mg/kg, and water (control for vehicle), twice daily (BID), orally (PO) at 10 ml/kg. Mice on normal diet (ND) were treated with vehicle. Mouse number in each group was 7-10. Body weight (BW) was monitored once a week. Body composition was monitored every other week by using EchoMRI™ Whole Body Composition Analyzer (Echo Medical Systems, Houston, Tex.). Fasting blood glucose was measured at 2 weeks of treatment. Postprandial blood glucose was measured at before and end of treatment. Fasting serum insulin was measured at dosing 2 weeks via orbital bleeding. Serum IL-6 was measured at the end of treatment under fasting condition. Insulin tolerance test (ITT) was also performed at end of the diet period.

Structure (SMILES)	insulin-induced glucose uptake (3T3-L1 adipocytes)	blood glucose (DIO C57BL/6 mice)	lean mass (DIO C57BL/6 mice)	blood glucose (DIO AKR mice; 2 weeks)	reduction in body weight (BW) (DIO AKR mice; last 2 weeks of 20 weeks on HFD, p<0.05)	time at which the effect on BW and fat mass appeared (DIO AKR mice; more pronounced over the 2 weeks)	blood glucose ([1]; 3 & 10 mg/kg, PO, BID, 4 weeks)	lean mass ([1]; 3 & 10 mg/kg, PO, BID, 4 weeks)	reduction in body weight (BW) ([1]; 3 & 10 mg/kg, PO, BID, last 4 weeks of 14 weeks on HFD, p<0.05)	response to an insulin tolerance test (ITT) ([1]; end of diet period, insulin i.p. 0.75 U/kg)
C[S+]([O-])c1ccc(-c2nc(-c3ccc(F)cc3)c(-c3ccncc3)[nH]2)cc1 (stereo not shown) [Compound 1, 4-(4-Fluorophenyl)-2-(4-methylsulfinylphenyl)-5-(4-pyridyl)imidazole]	reduced insulin-induced glucose uptake	–	–	–	–	–	–	–	–	–
COc1nccc(-c2c(-c3ccc(F)cc3)ncn2[C@H]2CC[C@H](O)CC2)n1 [Compound 2, trans-1-(4-hydroxycyclohexyl)-4-(4-fluorophenyl)-5-[(2-methoxy)pyrimidin-4-yl]imidazole]	–	no effect; also recorded: did not have any significant effect	no effect	no effect; also recorded: did not have any significant effect	4-9%	4 days	no effect; also recorded: did not have any significant effect	no effect	4-9%	did not have any significant effect
